Here are results for two compounds from article PMC8341145 (RSC Chemical Biology, 2021).

Holding throughout (test): CYP inhibition assay
Holding throughout (type): cell-based

One data set relates to CYP1A. The settings on record: read-out: CYP1A.
Another data set deals with CYP2D6 (Homo sapiens, UniProt P10635).
For another data set, the target named is CYP2C19 (Homo sapiens, UniProt P33261).
A further data set deals with CYP3A4 (Homo sapiens, UniProt P08684).
Another data set addresses CYP2C9 (Homo sapiens, UniProt P11712).
The next data set addresses T1, CYP2C8 (Homo sapiens, UniProt P10632).
T1 sequence (P10632 1-490): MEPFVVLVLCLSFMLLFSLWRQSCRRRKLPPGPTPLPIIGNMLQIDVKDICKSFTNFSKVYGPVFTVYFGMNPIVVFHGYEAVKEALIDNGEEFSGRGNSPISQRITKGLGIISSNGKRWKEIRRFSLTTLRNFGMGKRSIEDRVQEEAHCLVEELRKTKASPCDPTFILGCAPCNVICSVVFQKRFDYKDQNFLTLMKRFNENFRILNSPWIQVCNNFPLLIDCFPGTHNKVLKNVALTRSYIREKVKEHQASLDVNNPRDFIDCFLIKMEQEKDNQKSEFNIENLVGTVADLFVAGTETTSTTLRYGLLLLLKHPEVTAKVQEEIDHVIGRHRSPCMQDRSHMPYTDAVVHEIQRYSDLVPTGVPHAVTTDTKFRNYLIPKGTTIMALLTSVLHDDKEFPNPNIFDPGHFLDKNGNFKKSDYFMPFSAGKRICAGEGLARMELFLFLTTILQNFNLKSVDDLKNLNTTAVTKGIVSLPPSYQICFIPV

Some results are limits rather than exact numbers.

CYP2C19, sequence (P33261 whole entry): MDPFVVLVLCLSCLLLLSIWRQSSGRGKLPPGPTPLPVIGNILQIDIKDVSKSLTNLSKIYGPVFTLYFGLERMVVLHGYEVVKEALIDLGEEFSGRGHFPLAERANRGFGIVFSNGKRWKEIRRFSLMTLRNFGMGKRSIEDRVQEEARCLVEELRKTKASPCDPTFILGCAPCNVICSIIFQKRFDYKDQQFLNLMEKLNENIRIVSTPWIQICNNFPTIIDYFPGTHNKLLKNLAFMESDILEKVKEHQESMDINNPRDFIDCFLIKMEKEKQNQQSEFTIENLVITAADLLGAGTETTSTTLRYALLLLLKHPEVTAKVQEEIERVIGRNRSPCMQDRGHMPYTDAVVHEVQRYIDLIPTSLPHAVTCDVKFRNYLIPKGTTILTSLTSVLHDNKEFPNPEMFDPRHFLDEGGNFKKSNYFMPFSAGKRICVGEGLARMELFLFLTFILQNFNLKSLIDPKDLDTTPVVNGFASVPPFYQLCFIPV
CYP2D6, sequence (P10635 whole entry): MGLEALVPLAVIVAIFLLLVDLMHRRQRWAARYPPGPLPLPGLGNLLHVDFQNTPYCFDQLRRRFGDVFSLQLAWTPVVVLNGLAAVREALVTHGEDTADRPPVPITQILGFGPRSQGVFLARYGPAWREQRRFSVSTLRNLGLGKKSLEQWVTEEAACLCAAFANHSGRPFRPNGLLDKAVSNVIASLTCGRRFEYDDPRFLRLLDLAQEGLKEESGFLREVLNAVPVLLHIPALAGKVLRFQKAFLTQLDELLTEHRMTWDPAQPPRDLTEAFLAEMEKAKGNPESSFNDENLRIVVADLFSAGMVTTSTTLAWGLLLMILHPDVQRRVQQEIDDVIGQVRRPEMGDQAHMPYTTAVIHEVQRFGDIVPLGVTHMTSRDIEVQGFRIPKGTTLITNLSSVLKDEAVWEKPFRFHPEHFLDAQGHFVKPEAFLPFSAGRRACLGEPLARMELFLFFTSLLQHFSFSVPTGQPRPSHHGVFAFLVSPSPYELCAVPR
CYP3A4, sequence (P08684 2-503): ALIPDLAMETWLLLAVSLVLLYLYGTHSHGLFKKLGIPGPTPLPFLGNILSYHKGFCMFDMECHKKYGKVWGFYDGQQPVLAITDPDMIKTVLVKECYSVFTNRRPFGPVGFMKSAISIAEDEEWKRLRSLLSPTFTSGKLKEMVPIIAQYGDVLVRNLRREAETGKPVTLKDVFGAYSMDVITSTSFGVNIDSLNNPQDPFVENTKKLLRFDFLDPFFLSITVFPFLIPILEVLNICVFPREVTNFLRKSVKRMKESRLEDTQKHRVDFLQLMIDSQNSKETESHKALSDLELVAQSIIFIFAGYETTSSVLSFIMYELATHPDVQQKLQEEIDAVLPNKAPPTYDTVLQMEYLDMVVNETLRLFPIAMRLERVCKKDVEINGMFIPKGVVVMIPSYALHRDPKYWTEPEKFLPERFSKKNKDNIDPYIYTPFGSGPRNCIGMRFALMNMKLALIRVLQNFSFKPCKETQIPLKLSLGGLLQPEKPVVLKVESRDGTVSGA
CYP2C9, sequence (P11712 whole entry): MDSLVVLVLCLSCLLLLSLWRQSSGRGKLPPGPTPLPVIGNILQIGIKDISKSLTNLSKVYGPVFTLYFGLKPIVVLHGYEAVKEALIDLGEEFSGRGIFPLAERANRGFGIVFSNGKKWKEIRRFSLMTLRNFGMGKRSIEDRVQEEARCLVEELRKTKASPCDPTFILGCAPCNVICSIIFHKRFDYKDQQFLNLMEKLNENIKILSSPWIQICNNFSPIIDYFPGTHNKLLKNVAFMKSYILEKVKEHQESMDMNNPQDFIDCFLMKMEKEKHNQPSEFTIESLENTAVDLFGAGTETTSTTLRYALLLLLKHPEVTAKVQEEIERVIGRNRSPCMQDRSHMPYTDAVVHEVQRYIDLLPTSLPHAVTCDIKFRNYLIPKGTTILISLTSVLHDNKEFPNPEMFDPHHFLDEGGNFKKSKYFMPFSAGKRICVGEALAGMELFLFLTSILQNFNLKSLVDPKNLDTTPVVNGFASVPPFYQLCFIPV

Turning to `OC(Cn1cncn1)(Cn1cncn1)c1ccc(F)cc1F` [Fluconazole], the IC50 with CYP1A was greater than 100000 nM.
In the case of `CN(C[c-]1cccc1)CC(O)(Cn1cncn1)c1ccc(F)cc1F.Cl.[Fe+2].c1cc[cH-]c1` (stereo not shown) [2a, N-(ferrocenylmethyl)-2-(2,4-difluorophenyl)-2-hydroxy-N-methyl-3-(1H-1,2,4-triazol-1-yl)propan-1-aminium chloride], the IC50 was 2710 ± 120 nM against CYP2D6; less than 400 nM at CYP2C19; 400 ± 60 nM at CYP3A4; 3330 ± 710 nM on CYP2C9; 10400 ± 410 nM in the data set on CYP1A; 640 ± 90 nM against CYP2C8.
